Consider seven compounds from US5922683A, “Multicyclic erythromycin derivatives” (Abbott Laboratories, priority 1998, dated 1999).

Type in all cases: cell-based
Common to all, as to details: BHI agar, 35-37° C., 20 to 24 hours

Experiment [1] has as its system CANDIDA ALBICANS CCH 442. Description: In vitro antimicrobial activity (agar dilution MIC). The method, then:
(§1) Representative compounds of the present invention were assayed in vitro for antibacterial activity as follows: Twelve petri dishes containing successive aqueous dilutions of the test compound mixed with 10 mL of sterilized Brain Heart Infusion (BHI) agar (Difco 0418-01-5) were prepared. Each plate was inoculated with 1:100 (or 1:10 for slow-growing strains, such as Micrococcus and Streptococcus) dilutions of up to 32 different microorganisms, using a Steers replicator block. The inoculated plates were incubated at 35-37° C. for 20 to 24 hours. In addition, a control plate, using BHI agar containing no test compound, was prepared and incubated at the beginning and end of each test.
(§2) An additional plate containing a compound having known susceptibility patterns for the organisms being tested and belonging to the same antibiotic class as the test compound was also prepared and incubated as a further control, as well as to provide test-to-test comparability. Erythromycin A was used for this purpose.
(§3) After incubation, each plate was visually inspected. The minimum inhibitory concentration (MIC) was defined as the lowest concentration of drug yielding no growth, a slight haze, or sparsely isolated colonies on the inoculum spot as compared to the growth control.
On the technique in general: Agar dilution tests growth on a series of plates holding different concentrations.

In experiment [2] the test system is STAPHYLOCOCCUS AUREUS 1775. Description: In vitro antibacterial activity (agar dilution MIC). As to the method:
as §1, §2, §3

The test system of experiment [3] is STR[…] PIU 2548. The description is as above. The method, then: as §1, §2, §3
For experiment [4], the system named is STR[…] 930. The description is as above. The method, then:
as §1, §2, §3

Experiment [5] concerns STREPTOCOCCUS PYOGENES EES61. Described as above. As to the method:
as §1, §2, §3

The subject of experiment [6] is STAPHYLOCOCCUS AUREUS A-5278. Described as above. As to the method: as §1, §2, §3
Experiment [7] has as its system STREPTOCOCCUS BOVIS A-5169. The description is as above. The method, then: as §1, §2, §3
Experiment [8] deals with STAPHYLOCOCCUS AUREUS A5177. Described as above. As to the method:
as §1, §2, §3

The test system of experiment [9] is ESCHERICHIA COLI DC-2. The experiment is described as above. The method, then: as §1, §2, §3
Experiment [10] has as its system ESCHERICHIA COLI JUHL. The experiment is described as above. The method, then: as §1, §2, §3
In experiment [11] the test system is STAPHYLOCOCCUS AUREUS ATCC 6538P. The experiment is described as above. As to the method:
as §1, §2, §3

Experiment [12] has as its system ESCHERICHA COLI SS. Described as above. As to the method:
as §1, §2, §3

Experiment [13] has as its system N. ASTEROIDES ATCC 9970. The experiment is described as above. As to the method:
as §1, §2, §3

Experiment [14] deals with MYCOBACTERIUM SMEGMATIS ATCC 114. The experiment is described as above. As to the method:
as §1, §2, §3

The test system of experiment [15] is STAPHYLOCOCCUS AUREUS NCTC10649M. The experiment is described as above. The method, then:
as §1, §2, §3

For experiment [16], the system named is STAPHYLOCOCCUS EPIDERMIDIS 3519. The experiment is described as above. As to the method:
as §1, §2, §3

Experiment [17] has as its system STAPHYLOCOCCUS AUREUS CMX 553. The description is as above. The method, then: as §1, §2, §3
For experiment [18], the system named is STAPHYLOCOCCUS AUREUS CMX 642A. The description is as above. As to the method:
as §1, §2, §3

For the compound `CC[C@H]1OC(=O)[C@H](C)C(=O)[C@H](C)[C@@H](O[C@@H]2O[C@H](C)C[C@H](N(C)C)[C@H]2O)[C@](C)(OC)C[C@@H](C)C2Nc3ccccc3N3C(=O)O[C@@]1(C)[C@H]3[C@H]2C` (single isomer, unassigned) [Ex 3], the “minimum inhibitory concentration (MIC)” value is given as more than 100 in [1]; more than 100 in experiment [2]; 25 in experiment [3]; more than 100 in [4]; 3.1 in experiment [5]; more than 100 in experiment [6]. Also, the “minimum inhibitory concentration (MIC)” value in [7] is listed as 1.56; in experiment [8] it was 25; in [9] it was more than 100; in experiment [10], more than 100; in experiment [11], 25; in [12], 100.
On to `CC[C@H]1OC(=O)[C@H](C)C(=O)[C@H](C)[C@@H](O[C@@H]2O[C@H](C)C[C@H](N(C)C)[C@H]2O)[C@](C)(OC)C[C@@H](C)C2=Nc3ccccc3N3C(=O)O[C@@]1(C)[C@H]3[C@H]2C` [Ex 2], for which the “minimum inhibitory concentration (MIC)” value is recorded as more than 100 in experiment [1]; 0.39 in experiment [13]; more than 100 in [2]; 3.1 in experiment [14]; 0.39 in experiment [3]; more than 100 in experiment [4]. Besides, the “minimum inhibitory concentration (MIC)” value in [15] is recorded as 0.39; in [5], 0.1; in [6] it was more than 100; in experiment [7] it was 0.1; in experiment [8], 0.39; in [9], more than 100. Besides, the “minimum inhibitory concentration (MIC)” value is reported as 0.39 in [16]; more than 100 in [10]; 0.39 in [17]; 0.39 in experiment [11]; 1.56 in experiment [12]; 0.39 in [18].
In the case of `CC[C@H]1OC(=O)[C@H](C)C(=O)[C@H](C)[C@@H](O[C@@H]2O[C@H](C)C[C@H](N(C)C)[C@H]2O)[C@](C)(OC)C[C@@H](C)C2=Nc3cc(C)ccc3N3C(=O)O[C@@]1(C)[C@H]3[C@H]2C` [Ex 4], the “minimum inhibitory concentration (MIC)” value in [1] is given as more than 100; in experiment [13], 0.1; in experiment [14], 100; in [3], 0.2; in experiment [4] it was more than 100; in experiment [15] it was 0.78. Also, the “minimum inhibitory concentration (MIC)” value in experiment [6] is more than 100; in experiment [8], 0.78; in [9] it was more than 100; in experiment [10] it was more than 100; in experiment [11] it was 0.78; in experiment [12], 0.2. The “minimum inhibitory concentration (MIC)” value in [18] came out at 0.78.
For `CC[C@H]1OC(=O)[C@H](C)C(=O)[C@H](C)[C@@H](O[C@@H]2O[C@H](C)C[C@H](N(C)C)[C@H]2O)[C@](C)(OC)C[C@@H](C)C2=Nc3cc(OC)ccc3N3C(=O)O[C@@]1(C)[C@H]3[C@H]2C` [Ex 5], the “minimum inhibitory concentration (MIC)” value is reported as more than 100 in [1]; 0.2 in [13]; more than 100 in [2]; 1.56 in experiment [14]; 0.39 in experiment [3]; more than 100 in experiment [4]. Further, the “minimum inhibitory concentration (MIC)” value in experiment [15] is recorded as 0.78; in [5] it was 0.02; in experiment [6], more than 100; in [7] it was 0.02; in experiment [8], 0.78; in experiment [9], more than 100. In addition, the “minimum inhibitory concentration (MIC)” value in [16] is on record as 0.78; in [10] it was more than 100; in [17] it was 0.78; in experiment [11], 0.78; in [12], 50; in experiment [18] it was 0.78.
`CC[C@H]1OC(=O)[C@H](C)C(=O)[C@H](C)[C@@H](O[C@@H]2O[C@H](C)C[C@H](N(C)C)[C@H]2O)[C@](C)(OC)C[C@@H](C)C2=Nc3cc(C#N)ccc3N3C(=O)O[C@@]1(C)[C@H]3[C@H]2C` [Ex 6]: the “minimum inhibitory concentration (MIC)” value was more than 100 in experiment [1]; 0.39 in experiment [13]; more than 100 in [2]; 0.1 in experiment [14]; 0.39 in experiment [3]; more than 100 in experiment [4]. The “minimum inhibitory concentration (MIC)” value in experiment [15] is 0.39; in experiment [6], more than 100; in experiment [9], more than 100; in experiment [16], 0.2; in [10] it was more than 100; in experiment [17], 0.39. For the same compound, the “minimum inhibitory concentration (MIC)” value came out at 0.39 in experiment [11], 3.1 in experiment [12] and 0.39 in experiment [18].
For the compound `CC[C@H]1OC(=O)[C@H](C)C(=O)[C@H](C)[C@@H](O[C@@H]2O[C@H](C)C[C@H](N(C)C)[C@H]2O)[C@](C)(OC)C[C@@H](C)C2=Nc3cccnc3N3C(=O)O[C@@]1(C)[C@H]3[C@H]2C` [Ex 7], the “minimum inhibitory concentration (MIC)” value in experiment [1] is more than 100; in experiment [13], 0.1; in [2], more than 100; in experiment [14] it was 3.1; in experiment [3], 0.39; in experiment [4] it was more than 100. In addition, the “minimum inhibitory concentration (MIC)” value is listed as 0.39 in experiment [15]; 0.05 in experiment [5]; more than 100 in [6]; 0.05 in experiment [7]; 0.39 in experiment [8]; more than 100 in [9]. Besides, the “minimum inhibitory concentration (MIC)” value in [16] is reported as 0.39; in experiment [10] it was more than 100; in experiment [17], 0.39; in experiment [11], 0.39; in experiment [12] it was 0.78; in experiment [18] it was 0.39.
For `C=CCO[C@]1(C)C[C@@H](C)C2=Nc3ccccc3N3C(=O)O[C@](C)([C@@H](CC)OC(=O)[C@H](C)C(=O)[C@H](C)[C@H]1O[C@@H]1O[C@H](C)C[C@H](N(C)C)[C@H]1O)[C@H]3[C@H]2C` [Ex 8], the “minimum inhibitory concentration (MIC)” value in experiment [1] is given as more than 100; in [13] it was 3.1; in experiment [2], more than 100; in experiment [3], 0.78; in [4], more than 100; in experiment [15], 0.78. The “minimum inhibitory concentration (MIC)” value in experiment [5] is reported as 0.39; in [6], more than 100; in experiment [7], 0.1; in experiment [8], 0.78; in experiment [9], more than 100; in [10], more than 100. The “minimum inhibitory concentration (MIC)” value is 0.78 in experiment [17], 0.78 in experiment [11], 12.5 in experiment [12] and 0.78 in experiment [18].
